We go through three compounds from patent US6531613B1 (3M Innovative Properties Company, priority 2001, dated 2003).

The format of data set [1] is physicochemical. The note with it: for Dye Concentration in Acetone at RT: 72 h. The protocol: Examples 3-4 and Comparative Example A were prepared by placing 60-100 mg of each of the compounds of Examples 1-2 and 6-methoxy-14H-anthra(2,1,9-mna)thioxanthene-14-one (described by […] et al.) in a vial with 5.0 ml acetone. […] Each vial was hand shaken and the solution was filtered using a 0.45 micron polytetrafluoroethylene (PTFE) filter commercially available from VWR Scientific Products, West Chester, Pa. under the trade designation “Acrodisc 13CR PTFE”. The amount of fluorescent dye in the saturated acetone solution was determined by measuring the major dye absorption band at 535 nm using a UV-Vis Spectrophotometer commercially available from Shimadzu Scientific Instruments, Inc., Columbia, Md. under the trade designation “Shimadzu model UV-2401PC”. Dye concentrations were calculated by measuring the absorbance of the saturated acetone solution, and then diluting that solution until absorbance of the resulting solution was below 3. The dyes were assumed to have equal absorbance per mole. Using the dilution and an absorbance coefficient of 16,100 A/mol/L (coefficient obtained in acetone for the dye of Example 2) and assuming a Beer's Law relationship, the concentration of dye in each saturated solution was calculated and is set out in TABLE I.

For the compound `COc1cc2c3ccccc3c(=O)c3ccc4c5ccccc5sc1c4c32` [A, 6-methoxy-14H-anthra(2,1,9-mna)thioxanthene-14-one, reference compound], the “Dye Concentration in Acetone at RT” value in data set [1] came to 0.06 mg/mL.
As to `CCCCC(CC)COc1cc2c3ccccc3c(=O)c3ccc4c5ccccc5sc1c4c32` (stereo not drawn) [Example 1, 6-[(2-Ethylhexyl)oxy]-14H-anthra[2,1,9-mna]thioxanthene-14-one], the melting point (commonly the temperature of the solid-liquid transition) lay in the range of 175 to 177 °C. For the same compound, in data set [1], the “solubility in acetone relative to Comparative Example A” value is “improved solubility” and the “Dye Concentration in Acetone at RT” value is 0.96 mg/mL.
As to `CC(C)CC(CC(C)C)Oc1cc2c3ccccc3c(=O)c3ccc4c5ccccc5sc1c4c32` [Example 2, 6-(1-Isobutyl-3-methylbutoxy)-14H-anthra[2,1,9-mna]thioxanthene-14-one], in data set [1], the “solubility in acetone relative to Comparative Example A” value is on record as “improved solubility” and the “Dye Concentration in Acetone at RT” value was found to be 2.98 mg/mL.
